The nature of the data set: Surface tension measurement. It is filed as physicochemical. Details: unit not given here. The following applies: at 1.5 mg/L. From the text: Surface tension is increased in proportion to molecular interaction, and hydrocarbons or organic polymers show low surface tension due to their weak molecular interaction. Surface tension is represented by N/m. Since surfactants have hydrophobic and hydrophilic groups, when added to water, its surface tension is lowered. […] The compounds represented by […]
`CCCCCC(=O)OC1C(O)C(O)C(O)C(O)C1OC(=O)CCCCC` (single isomer, unassigned) [Compound A57-4-gly-2]: the “Surface Tension” value stood at 22.40. In the case of `CCCCCC(=O)OC1C(O)C(O)C(O)C(O)C1OC(=O)CCCCC` (single isomer, unassigned) [Compound A57-4-gly-5], the “Surface Tension” value is recorded as 22.44. The same measure for `CCCCCC(=O)OC1C(O)C(O)C(O)C(OC(C)=O)C1OC(=O)CCCCC` (centres unmarked) [Compound A57-4-gly-1]: 22.90. The same measure for `CCCCCC(=O)OC1C(O)C(O)C(O)C(OC(=O)CCCCC)C1OC(C)=O` (centres unmarked) [Compound A57-4-gly-3]: 28.71; for `CCCCCC(=O)OC1C(O)C(O)C(O)C(OC(=O)CCCCC)C1OC(=O)CCCCC` (centres unmarked) [Compound A57-4-gly-4]: 25.28.

These data come from US20140323757A1, “Biosurfactant Isolated from Yeast” (Gyeongbuk Institute of Marine Bio-industry, priority 2013, published 2014).
